In patent publication US8658646B2, “Pyrrolopyrazine kinase inhibitors” (Hoffmann-LaRoche Inc., priority 2011, dated 2014):
pIC50: −log10 of the molar value. Values joined by “and” are separate entries in the source; they are usually repeats but may differ in a detail not shown here. Equal entries are not always repeated.

Columns and labels:
[1] = target: T1, recombinant human SYK360-635 (Homo sapiens, UniProt P43405); assay: Determination of IC50 of Spleen Tyrosine Kinase (SYK) inhibition, 33P ATP filtration assay; format: biochemical; settings: SYK aa 360-635 0.5 nM; ATP 20 μM, peptide 5 μM, 0.1% BSA; read-out: SYK_ENZYME_FILTRATION/v1, BSA
T1 construct: made in house
Description: All concentrations were final in the reaction mixture and all incubations were carried at room temperature. […] SYK Assay Information Determination of IC50 of Spleen Tyrosine Kinase (SYK) Inhibition:
SYK kinase assay is a standard kinase assay adapted to a 96 well plate format. This assay is performed in 96-well format for IC50 determination with 8 samples which represented 10 half log dilutions and a 40 μL reaction volume. The assay measures the incorporation of radiolabeled ^33P γATP into an N-terminally biotinylated peptide substrate, derived from naturally occurring phosphoacceptor consensus sequence (Biotin-11aa DY*E). […] Experimental Method:
DMSO and the mixture was incubated for 10 min at RT.
The kinase reaction was initiated by the addition of 10 μL 4× substrate cocktail containing the DYE peptide substrate [0 or 5 μM], ATP [20 μM] and ^33PγATP [2 μCi/r×n]. After incubation at 30° C. for 15 min, the reaction was terminated by the transfer of 25 μL pf the reaction sample to a 96 well 0.65 μm Millipore MADVNOB membrane/plate containing 200 μL 5 mM EDTA and 20% Streptavidine coated beads in PBS.
The unbound radionucleotides were washed under vacuum with 3×250 μL 2M NaCl; 2×250 μL 2M NaCl+1% phosphoric acid; 1×250 μL H2O. After the last wash membrane/plates were transferred to an adaptor plate, heat dried for 15 min at 60° C., and 50 μL scintillation cocktail was added to each well and 4 h later the amount of radioactivity was counted in a top counter.

[2] = target: T2, JAK3: Recombinant human kinase domain (Homo sapiens, UniProt P52333); assay: Determination of IC50 of Janus Kinase (JAK) inhibition, radioactive end-point 33P-ATP assay, JAK3; format: biochemical; settings: ATP 1.5 uM, peptide 50 uM, 20 minutes, read-out: JAK3-INHIB-DR/v1~NO ADDITIVE~Enzyme_Conc = 100
T2 construct: JAK3: Recombinant human kinase domain from Millipore (Cat #14-629) or prepared; purchased Millipore 14-629
T2 sequence (P52333 822-1111 limits assumed): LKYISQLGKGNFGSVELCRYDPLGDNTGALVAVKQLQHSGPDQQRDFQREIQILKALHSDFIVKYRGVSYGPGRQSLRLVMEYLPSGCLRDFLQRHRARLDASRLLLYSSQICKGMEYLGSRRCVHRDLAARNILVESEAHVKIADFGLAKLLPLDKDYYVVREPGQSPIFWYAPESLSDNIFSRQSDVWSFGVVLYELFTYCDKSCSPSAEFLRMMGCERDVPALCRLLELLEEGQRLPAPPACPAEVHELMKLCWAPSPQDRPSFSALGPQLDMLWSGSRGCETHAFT
Description: Determination of IC50 of Janus Kinase (JAK) Inhibition:
Assay conditions used are described below: • Assay Buffer: JAK Kinase Buffer: 50 mM Hepes [pH 7.2], 10 mM MgCl2, 1 mM DTT, 1 mg/ml BSA. The assay was carried out in this buffer. • Assay Format The kinase activity of all three JAK kinases was measured using a radioactive, end-point assay and with trace amounts of ^33P-ATP. The assays were carried out in 96-well polypropylene plates. Experimental Method:
All concentrations were final in the reaction mixture and all incubations were carried at room temperature. […] Final concentration of DMSO in the reaction was 10%. • 2) Compounds were preincubated with enzyme (0.5 nM JAK3 (commercially available), 0.2 nM JAK3 (prepared), 1 nM JAK2, 5 nM JAK1) for 10 minutes. • 3) Reactions were initiated by the addition of a cocktail of the two substrates (ATP and peptide premixed in the JAK Kinase Buffer). […] JAK1 assay was carried out at an ATP concentration of 10 uM and a peptide concentration of 50 uM. • 4) The duration of the assay for JAK2 and JAK3 is 20 minutes. JAK1 assay was carried out for 40 minutes. With all three enzymes, reactions were terminated by the addition of 0.5M EDTA to a final concentration of 100 mM. • 5) 25 ul of terminated reactions were transferred to 150 ul of a 7.5% (v/v) slurry of streptavidin-coated sepharose beads in MgCl2- and CaCl2-free 1× Phosphate Buffered Saline containing 50 mM of EDTA in 96-well, 1.2 um MultiScreen-BV filter plates. • 6) After a 30-minute incubation, the beads were washed under vacuum with the following buffers: • a. 3 to 4 washes with 200 ul of 2M NaCl. • b. 3 to 4 washes with 200 ul of 2M NaCl plus 1% (v/v) phosphoric acid. • c. 1 wash with water. • 7) Washed plates were dried in a 60° C. oven for between 1 to 2 hours. • 8) 70 ul of Microscint 20 scintillation fluid was added to each well of filter plates and after at least 30 minutes of incubation, radioactive counts were measured in a Perkinelmer microplate scintillation counter.

Row | SMILES | pIC50 [1] | pIC50 [2] | IC50 [1]
1 | CC(C)NC(=O)c1c[nH]c2ncc(-c3nn(C)c4ccc(Oc5cccc(Cl)c5)cc34)nc12 [Example I-280, 2-[5-(3-Chloro-phenoxy)-1-methyl-1H-indazol-3-yl]-5H-pyrrolo[2,3-b]pyrazine-7-carboxylic acid isopropylamide] | 6.42 | 6.62 | 
2 | CC(C)NC(=O)c1c[nH]c2ncc(-c3nn(C)c4ccc(OC(F)(F)F)cc34)nc12 [Example I-281, 2-(1-Methyl-5-trifluoromethoxy-1H-indazol-3-yl)-5H-pyrrolo[2,3-b]pyrazine-7-carboxylic acid isopropylamide] | 7.90 | 7.22 | 
3 | CC(C)NC(=O)c1c[nH]c2ncc(-c3nn(C)c4c3CCC4)nc12 [Example I-282, 2-(1-Methyl-1,4,5,6-tetrahydro-cyclopentapyrazol-3-yl)-5H-pyrrolo[2,3-b]pyrazine-7-carboxylic acid isopropylamide] | 7.50 | 7.90 | 
4 | CC(C)NC(=O)c1c[nH]c2ncc(-c3nn(C)c4ccc(OC(F)F)cc34)nc12 [Example I-283, 2-(5-Difluoromethoxy-1-methyl-1H-indazol-3-yl)-5H-pyrrolo[2,3-b]pyrazine-7-carboxylic acid isopropylamide] | 8.35 | 7.84 | 
5 | Cn1nc(-c2cnc3[nH]cc(C(=O)NC(C)(C)CO)c3n2)c2cc(OC(F)F)ccc21 [Example I-285, 2-(5-Difluoromethoxy-1-methyl-1H-indazol-3-yl)-5H-pyrrolo[2,3-b]pyrazine-7-carboxylic acid (2-hydroxy-1,1-dimethyl-ethyl)-amide] | 8.34 | 7.08 | 
6 | Cn1nc(-c2cnc3[nH]cc(C(=O)NC4(CO)CCOCC4)c3n2)c2cc(OC(F)F)ccc21 [Example I-286, 2-(5-Difluoromethoxy-1-methyl-1H-indazol-3-yl)-5H-pyrrolo[2,3-b]pyrazine-7-carboxylic acid (4-hydroxymethyl-tetrahydro-pyran-4-yl)-amide] | 7.08 | 6.13 | 
7 | CC(C)(C)NC(=O)c1c[nH]c2ncc(-c3nn(CCCN4CC(F)(F)C4)c4ccc(OC(F)F)cc34)nc12 [Example I-296, 2-{1-[3-(3,3-Difluoro-azetidin-1-yl)-propyl]-5-difluoromethoxy-1H-indazol-3-yl}-5H-pyrrolo[2,3-b]pyrazine-7-carboxylic acid tert-butylamide] | 7.86 | 7.10 | 
8 | CC(C)NC(=O)c1c[nH]c2ncc(-c3nn(Cc4ccon4)c4cc(Cl)ccc34)nc12 [Example I-310, 2-(6-Chloro-1-isoxazol-3-ylmethyl-1H-indazol-3-yl)-5H-pyrrolo[2,3-b]pyrazine-7-carboxylic acid isopropylamide] | 7.45 | 7.50 | 
9 | CC(C)NC(=O)c1c[nH]c2ncc(-c3nn(Cc4nccn4C)c4cc(Cl)ccc34)nc12 [Example I-311, 2-[6-Chloro-1-(1-methyl-1H-imidazol-2-ylmethyl)-1H-indazol-3-yl]-5H-pyrrolo[2,3-b]pyrazine-7-carboxylic acid isopropylamide] | 7.96 | 8.35 | 
10 | Cc1cc(Cn2nc(-c3cnc4[nH]cc(C(=O)NC(C)C)c4n3)c3ccc(Cl)cc32)no1 [Example I-312, 2-[6-Chloro-1-(5-methyl-isoxazol-3-ylmethyl)-1H-indazol-3-yl]-5H-pyrrolo[2,3-b]pyrazine-7-carboxylic acid isopropylamide] | 7.13 | 8.08 | 
11 | CN(C)CCn1nc(-c2cnc3[nH]cc(C(=O)NC(C)(C)C)c3n2)c2ccc(F)cc21 [Example I-313, 2-[1-(2-Dimethylamino-ethyl)-6-fluoro-1H-indazol-3-yl]-5H-pyrrolo[2,3-b]pyrazine-7-carboxylic acid tert-butylamide] | 7.34 | 6.80 | 
12 | CC(C)(C)NC(=O)c1c[nH]c2ncc(-c3ncn4cc(F)ccc34)nc12 [Example I-357, 2-(6-Fluoro-imidazo[1,5-a]pyridin-1-yl)-5H-pyrrolo[2,3-b]pyrazine-7-carboxylic acid tert-butylamide] | 7.83 | 8.28 | 
13 | COc1ccc2c(-c3cnc4[nH]cc(C(=O)NC(C)(C)CO)c4n3)nn(C)c2c1 [Example I-365, 2-(6-Methoxy-1-methyl-1H-indazol-3-yl)-5H-pyrrolo[2,3-b]pyrazine-7-carboxylic acid (2-hydroxy-1,1-dimethyl-ethyl)-amide] | 8.48 | 7.23 | 
14 | COc1ccc2c(-c3cnc4[nH]cc(C(=O)NC(C)(C)C)c4n3)nn(C)c2c1 [Example I-366, 2-(6-Methoxy-1-methyl-1H-indazol-3-yl)-5H-pyrrolo[2,3-b]pyrazine-7-carboxylic acid tert-butylamide] |  | 7.20 | < 1 nM (2×) and 1.6 nM
15 | CCC(C)(C)NC(=O)c1c[nH]c2ncc(-c3nn(C)c4cc(F)ccc34)nc12 [Example I-375, 2-(6-Fluoro-1-methyl-1H-indazol-3-yl)-5H-pyrrolo[2,3-b]pyrazine-7-carboxylic acid (1,1-dimethyl-propyl)-amide] | 8.47 | 7.64 | 
16 | Cn1nc(-c2cnc3[nH]cc(C(=O)NC(C)(C)C#N)c3n2)c2ccc(F)cc21 [Example I-377, 2-(6-Fluoro-1-methyl-1H-indazol-3-yl)-5H-pyrrolo[2,3-b]pyrazine-7-carboxylic acid (cyano-dimethyl-methyl)-amide] | 8.34 | 8.27 | 
17 | Cn1nc(-c2cnc3[nH]cc(C(=O)NC4(C)CC4)c3n2)c2ccc(F)cc21 [Example I-378, 2-(6-Fluoro-1-methyl-1H-indazol-3-yl)-5H-pyrrolo[2,3-b]pyrazine-7-carboxylic acid (1-methyl-cyclopropyl)-amide] | 8.51 | 7.89 | 
18 | CC(C)(C)NC(=O)c1c[nH]c2ncc(-c3cccc4[nH]ncc34)nc12 [Example I-399, 2-(1H-Indazol-4-yl)-5H-pyrrolo[2,3-b]pyrazine-7-carboxylic acid tert-butylamide] | 8.33 | 7.74 | 
